Measurements: US10238671B2, “Hydrosoluble hydroxybisphosphonic derivatives of doxorubicin” (Atlanthera, priority 2014, dated 2019)
Values after ≈ are worked out from the molar mass of the structure shown.

Experiments:
[1] = Solubility of compounds (II), (III) and (IV) compared with products (a) and (b); settings: for solubility: aqueous buffer
[2] = tested on: human tumor line HOS (human osteosarcoma, ATCC); assay: Orthotopic xenogeneic murine model of osteolytic osteosarcoma (paratibial injection of HOS): tumor volume and radiographic evaluation; assay type: in vivo, immunosuppressed mice; settings: for Size of extraosseous tumors in relation to control group and vector 5 and/or doxorubicin groups: 25 μmol/kg 2x/wk intraperitoneally, HOS tumor in mice; for Fractures of the tibial metaphysis: Day 27, radiography, 90% of control animals have fractures; for Bone lesions (metaphyseal fractures, alteration of cortical integrity, new formation of ectopic bone): radiographic evaluation, compared with control and other groups
Protocol: The antitumor activity of compounds (II) and (III) according to the invention was evaluated in an orthotopic, xenogeneic murine model of osteolytic osteosarcoma induced by paratibial injection of the human tumor line HOS (human osteosarcoma, ATCC) in immunosuppressed mice. The activity of the molecules according to the invention was compared with that of the two main subunits comprising them (doxorubicin and vector 5) alone or in combination. The treatments, on 10 animals per group, began the day following tumor induction and were administered intraperitoneally 1 to 2 times per week for 5 weeks. Tumor volumes were measured twice per week using a slide caliper and radiographic evaluation was carried out once per week. Tumor volume, expressed in mm^3, is calculated according to the following formula: V=(L×l^2)/2 (L and l, expressed in mm, correspond to the large length and the small length of the tumor, respectively).
The following treatment groups were thus studied, each on 10 mice: […]

[3] = Toxicity in mice (weight loss, cardiotoxicity, maximum usable dose); settings: for Dose giving similar weight loss, relative to doxorubicin alone (maximum usable dose study): mice, intravenously or intraperitoneally
[4] = 2 mg/ml solution of TRIS in water

SMILES	Solubility in 2 mg/ml solution of TRIS in water [1, 4]	Solubility in DPBS or water ([1]; DPBS or water)	Size of extraosseous tumors in relation to control group and vector 5 and/or doxorubicin groups [2]	Fractures of the tibial metaphysis [2]	Bone lesions (metaphyseal fractures, alteration of cortical integrity, new formation of ectopic bone) [2]	Dose giving similar weight loss, relative to doxorubicin alone (maximum usable dose study) [3]	solubility ([1]; DPBS or water)	also measured
COc1cccc2c1C(=O)c1c(O)c3c(c(O)c1C2=O)C[C@@](O)(/C(CO)=N/NC(=S)N/N=C/c1cccc(OCCCN(C)CCC(O)(P(=O)(O)O)P(=O)(O)O)c1)C[C@@H]3O[C@H]1C[C@H](N)[C@H](O)[C@H](C)O1 [(a)]	insoluble	insoluble						Solubility in organic solvents ([1]; ethanol or dimethylsulfoxide or mixtures thereof with water): insoluble; Solubility in water with organic or inorganic additives ([1]; water with organic additives (Tween, PEG, glycerin, glucose, TRIS) or inorganic additives (sodium carbonate or bicarbonate)): insoluble
COc1cccc2c1C(=O)c1c(O)c3c(c(O)c1C2=O)C[C@@](O)(/C(CO)=N/NC(=S)N/N=C/c1cccc(OCCCN(C)CCC(O)(P(=O)(O)O)P(=O)(O)O)c1)C[C@@H]3O[C@H]1C[C@H](NC(=O)CCC(=O)O)[C@H](O)[C@H](C)O1 [(b)]	poorly soluble	insoluble						solubility [1, 4]: ~1 mM (≈ 1.13 mg/mL)
COc1cccc2c1C(=O)c1c(O)c3c(c(O)c1C2=O)C[C@@](O)(/C(CO)=N/NC(=S)NNC(=O)CN(CCN(CC(=O)O)CC(=O)NNC(=S)N/N=C/c1cccc(OCCCN(C)CCC(O)(P(=O)(O)O)P(=O)(O)O)c1)CC(=O)O)C[C@@H]3O[C@H]1C[C@H](N)[C@H](O)[C@H](C)O1 [Compound (II)]			significantly reduce	not detected in any of the mice	reduce	13 times higher	~255 mM (≈ 354 mg/mL)	Animals with a tumor greater than 1500 mm^3 in volume ([2]; Day 32, 10 mice per group): only one mouse; Signs of toxicity (very early weight loss, cardiotoxicity) ([3]; 20 μmol/kg (molar equivalent dose to doxorubicin 12 mg/kg)): do not induce these signs of toxicity
COc1cccc2c1C(=O)c1c(O)c3c(c(O)c1C2=O)C[C@@](O)(/C(CO)=N/OCC(O)(P(=O)(O)O)P(=O)(O)O)C[C@@H]3O[C@H]1C[C@H](N)[C@H](O)[C@H](C)O1 [Compound (IV)]						13 times higher	~315 mM (≈ 240 mg/mL)	
COc1cccc2c1C(=O)c1c(O)c3c(c(O)c1C2=O)C[C@@](O)(/C(CO)=N/NC(=S)NNCc1cccc(OCCCN(C)CCC(O)(P(=O)(O)O)P(=O)(O)O)c1)C[C@@H]3O[C@H]1C[C@H](N)[C@H](O)[C@H](C)O1 [Compound (III)]			significantly reduce	not detected in any of the mice	reduce	13 times higher	~160 mM (≈ 164 mg/mL)	
COc1cccc2c1C(=O)c1c(O)c3c(c(O)c1C2=O)C[C@@](O)(C(=O)CO)C[C@@H]3O[C@H]1C[C@H](N)[C@H](O)[C@H](C)O1 [doxorubicin]					equivalent to those of the control group			Outcome after Day 27 (tumor volume) ([2]; after Day 27): had to be euthanized because of excessively large tumor volumes; Weight loss ([3]; dose 12 mg/kg (20 μmol/kg), requiring euthanasia after 2 weeks of treatment): > 10%
